Test results as given in the supplement of paper PMC10307832.

What was measured:
Assay in all cases: relative viability (nuclei count vs DMSO), 5 days (fraction); higher = more cells survive
Idelalisib + Trametinib = compound: CC[C@H](Nc1ncnc2[nH]cnc12)c1nc2cccc(F)c2c(=O)n1-c1ccccc1 [Idelalisib] + CC(=O)Nc1cccc(-n2c(=O)n(C3CC3)c(=O)c3c(Nc4ccc(I)cc4F)n(C)c(=O)c(C)c32)c1 [Trametinib] (partner 0.02 µM)
Summary of the method: (§1)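 Cells from lung cancer lines were seeded into 1536-well plates and, one day later, dosed by pin tool. Treatments were either a single drug or a fixed dose of an anchor drug with five library-drug doses (not always all listed) in √10 steps. After 5 days, nuclei were stained in a one-step fixation (final 0.05% Triton X-100, 1% formaldehyde, 1 ug/ml Hoechst) and counted on 4× images, and relative viability is the treated-to-vehicle nuclei ratio, as the median of duplicate plates.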

Idelalisib + Vorinostat = compound: CC[C@H](Nc1ncnc2[nH]cnc12)c1nc2cccc(F)c2c(=O)n1-c1ccccc1 [Idelalisib] + O=C(CCCCCCC(=O)Nc1ccccc1)NO [Vorinostat] (partner 1 µM)
Summary of the method: as §1

Pemetrexed + Luminespib = compound: Nc1nc2[nH]cc(CCc3ccc(C(=O)N[C@@H](CCC(=O)O)C(=O)O)cc3)c2c(=O)[nH]1 [Pemetrexed] + CCNC(=O)c1noc(-c2cc(C(C)C)c(O)cc2O)c1-c1ccc(CN2CCOCC2)cc1 [Luminespib] (partner 0.01 µM)
Summary of the method: as §1

Idelalisib + Crizotinib = compound: CC[C@H](Nc1ncnc2[nH]cnc12)c1nc2cccc(F)c2c(=O)n1-c1ccccc1 [Idelalisib] + C[C@@H](Oc1cc(-c2cnn(C3CCNCC3)c2)cnc1N)c1c(Cl)ccc(F)c1Cl [Crizotinib] (partner 1 µM)
Summary of the method: as §1

| Cell Line | relative viability (Idelalisib + Trametinib; first compound 0.04 µM) | relative viability (Idelalisib + Trametinib; first compound 0.1265 µM) | relative viability (Idelalisib + Trametinib; first compound 0.4 µM) | relative viability (Idelalisib + Trametinib; first compound 1.265 µM) | relative viability (Idelalisib + Trametinib; first compound 4 µM) | relative viability (Idelalisib + Vorinostat; first compound 0.04 µM) | relative viability (Idelalisib + Vorinostat; first compound 0.1265 µM) | relative viability (Idelalisib + Vorinostat; first compound 0.4 µM) | relative viability (Idelalisib + Vorinostat; first compound 1.265 µM) | relative viability (Idelalisib + Vorinostat; first compound 4 µM) | relative viability (Pemetrexed + Luminespib; first compound 0.002 µM) | relative viability (Pemetrexed + Luminespib; first compound 0.006325 µM) | relative viability (Pemetrexed + Luminespib; first compound 0.02 µM) | relative viability (Pemetrexed + Luminespib; first compound 0.06325 µM) | relative viability (Pemetrexed + Luminespib; first compound 0.2 µM) | relative viability (Idelalisib + Crizotinib; first compound 0.04 µM) | relative viability (Idelalisib + Crizotinib; first compound 0.1265 µM) | relative viability (Idelalisib + Crizotinib; first compound 0.4 µM) | relative viability (Idelalisib + Crizotinib; first compound 1.265 µM) | relative viability (Idelalisib + Crizotinib; first compound 4 µM) |
| --- | --- | --- | --- | --- | --- | --- | --- | --- | --- | --- | --- | --- | --- | --- | --- | --- | --- | --- | --- | --- |
| NCI-H2405 | 0.672 | 0.656 | 0.423 | 0.622 | 0.515 | 1.2 | 1.05 | 0.908 | 1.04 | 1.06 | 0.703 | 0.775 | 0.77 | 0.818 | 0.789 | 0.846 | 0.814 | 0.708 | 0.76 | 0.692 |
| NCI-H3122 | 0.224 | 0.223 | 0.188 | 0.235 | 0.225 | 1.01 | 1.07 | 0.933 | 1.02 | 0.579 | 0.106 | 0.106 | 0.106 | 0.0892 | 0.0783 | 0.296 | 0.28 | 0.3 | 0.283 | 0.289 |
| PC-3 [JPC-3] | 0.721 | 0.69 | 0.724 | 0.607 | 0.496 | 1.04 | 0.952 | 0.841 | 0.86 | 0.747 | 0.678 | 0.79 | 0.702 | 0.715 | 0.758 | 1 | 1.04 | 0.94 | 0.98 | 0.881 |
| PC-14 | 0.648 | 0.757 | 0.695 | 0.723 | 0.509 | 0.901 | 0.709 | 0.633 | 0.363 | 0.68 | 0.15 | 0.133 | 0.151 | 0.136 | 0.137 | 0.821 | 0.947 | 0.882 | 0.905 | 0.908 |
| RERF-LC-KJ | 0.84 | 0.912 | 0.804 | 0.936 | 0.66 | 0.826 | 0.754 | 0.725 | 0.697 | 0.512 | 1.39 | 1.28 | 1.38 | 1.21 | 0.831 | 0.94 | 0.845 | 0.847 | 0.785 | 0.861 |
| SK-LU-1 | 0.422 | 0.467 | 0.394 | 0.492 | 0.414 | 0.739 | 0.735 | 0.645 | 0.813 | 0.768 | 0.195 | 0.2 | 0.187 | 0.2 | 0.21 | 0.923 | 1.06 | 0.826 | 0.777 | 0.826 |
| SK-MES-1 | 0.497 | 0.482 | 0.426 | 0.477 | 0.353 | 1.19 | 1.06 | 0.974 | 0.395 | 1.04 | 0.649 | 0.56 | 0.965 | 0.688 | 0.773 | 1.06 | 0.959 | 0.888 | 0.876 | 0.789 |
| SW 1573 | 0.688 | 0.468 | 0.477 | 0.506 | 0.383 | 0.907 | 0.629 | 0.7 | 0.556 | 0.49 | 0.285 | 0.443 | 0.249 | 0.125 | 0.176 | 0.794 | 0.682 | 0.836 | 0.832 | 0.833 |
